The values that follow come from patent US20240101531A1, “PYRIDINAMINE DERIVATIVES AND THEIR USE AS POTASSIUM CHANNEL MODULATORS” (Xenon Pharmaceuticals Inc., priority 2022, published 2024).

As usually defined, the EC50 is the concentration giving half of the maximal effect.

Each structure is given as a SMILES string. Structures can show the parent of a compound that is named as a salt.

The target of this experiment is human KV7.2/KV7.3 (Homo sapiens (Human), UniProt O43525+O43526). The experiment in a line: Potassium flux assay (IPG-2 AM dye). Format: cell-based. Conditions: TREX HEK 293 or HEK 293 cells expressing human KV7.2/KV7.3; arithmetic mean values. In outline:
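EC50 from 16 concentrations (2-fold dilutions, top 30 μM), scaled between DMSO baseline and a known KV7.x modulator maximum. Signal is IPG-2 AM fluorescence (ex 530/em 558 nm) after 10 mM KCl challenge buffer addition, following 20 min room-temperature compound exposure of HEK 293 or TREX HEK 293 cells stably expressing human KV7.2/KV7.3.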

`Cc1ncc(Nc2nccc3cc(OCc4cnn(C)c4C)ccc23)cn1` [Example 353, 6-((1,5-dimethyl-1H-pyrazol-4-yl)methoxy)-N-(2-methylpyrimidin-5-yl)isoquinolin-1-amine]: the EC50 was < 1 µM.

As to `Cc1ncc(Nc2nccc3cc(OCC4(F)CNC4)ccc23)cn1` [Example 58, 6-((3-fluoroazetidin-3-yl)methoxy)-N-(2-methylpyrimidin-5-yl)isoquinolin-1-amine], the EC50 is ≥ 30 µM.

For `N#CC1(COc2ccc3c(Nc4ccc(Cl)nc4)nccc3c2)CCOC1` (stereo in doubt) [Example 125, (R)-3-(((1-((6-chloropyridin-3-yl)amino)isoquinolin-6-yl)oxy)methyl)tetrahydrofuran-3-carbonitrile], the EC50 is < 1 µM.

Regarding `CO[C@H](C)c1ccc2c(Nc3ccc(Cl)nc3)nccc2c1` [Example 132, (R)-N-(6-chloropyridin-3-yl)-6-(1-methoxyethyl)isoquinolin-1-amine], the 50% effective concentration (EC50) was in the range of 10 to 30 µM.

With `N#CC12CC(COc3ccc4c(Nc5cnc(Cl)nc5)nccc4c3)(C1)C2` [Example 40, 3-(((1-((2-chloropyrimidin-5-yl)amino)isoquinolin-6-yl)oxy)methyl)bicyclo[1.1.1]pentane-1-carbonitrile], the EC50 is < 1 µM.

Consider `Clc1ccc(Nc2nccc3cc(CNc4cn[nH]c4)ccc23)cn1` [Example 248, 6-(((1H-pyrazol-4-yl)amino)methyl)-N-(6-chloropyridin-3-yl)isoquinolin-1-amine], for which the EC50 was in the range of 1 to 10 µM.

Consider `COc1ncc(Nc2nccc3cc(OCc4cnn(C)c4)ccc23)cn1` [Example 371, N-(2-methoxypyrimidin-5-yl)-6-((1-methyl-1H-pyrazol-4-yl)methoxy)isoquinolin-1-amine], for which the EC50 is < 1 µM.

Regarding `Clc1ccc(Nc2nccc3cc(OCc4cccnc4)ccc23)cn1` [Example 195, N-(6-chloropyridin-3-yl)-6-(pyridin-3-ylmethoxy)isoquinolin-1-amine], the EC50 is < 1 µM.

In the case of `Cc1ncc(Nc2nccc3cc(OCC4CC4)ccc23)cn1` [Example 24, 6-(cyclopropylmethoxy)-N-(2-methylpyrimidin-5-yl)isoquinolin-1-amine], the EC50 was 1 to 10 µM.

For the molecule `COc1ccc2c(Nc3ccc(Cl)nc3)nccc2c1` [Example 19, N-(6-chloropyridin-3-yl)-6-methoxyisoquinolin-1-amine formate], the EC50 lay in the range of 1 to 10 µM.

With `FC1CN(CCOc2ccc3c(Nc4ccc(Cl)nc4)nccc3c2)C1` [Example 116, N-(6-chloropyridin-3-yl)-6-(2-(3-fluoroazetidin-1-yl)ethoxy)isoquinolin-1-amine], the EC50 lay within 1 to 10 µM.

With `N#CC1(COc2ccc3c(Nc4cnc(Cl)nc4)nccc3c2)CC12CC2` (stereo not shown) [Example 349, 1-(((1-((2-chloropyrimidin-5-yl)amino)isoquinolin-6-yl)oxy)methyl)spiro[2.2]pentane-1-carbonitrile], the EC50 is < 1 µM.

With `Clc1ccc(Nc2nccc3cc(OCc4cn[nH]c4C4CC4)ccc23)cn1` [Example 379, N-(6-chloropyridin-3-yl)-6-((5-cyclopropyl-1H-pyrazol-4-yl)methoxy)isoquinolin-1-amine], the EC50 is < 1 µM.

Turning to `C[C@H](Oc1ccc2c(Nc3ccc(Cl)nc3)nccc2c1)c1cnn(C)c1` [Example 172, (S)—N-(6-chloropyridin-3-yl)-6-(1-(1-methyl-1H-pyrazol-4-yl)ethoxy)isoquinolin-1-amine], the EC50 is < 1 µM.

With `Fc1c(OCC2CC2)ccc2c(Nc3ccc(Cl)nc3)nccc12` [Example 229, N-(6-chloropyridin-3-yl)-6-(cyclopropylmethoxy)-5-fluoroisoquinolin-1-amine], the EC50 was 1 to 10 µM.

For `Clc1ccc(Nc2nccc3cc(OCc4c[nH]nc4Cl)ccc23)cn1` [Example 337, 6-((3-chloro-1H-pyrazol-4-yl)methoxy)-N-(6-chloropyridin-3-yl)isoquinolin-1-amine], the EC50 was in the range of 1 to 10 µM.
